Experimental data as given in paper PMC7587356, “High-Throughput Screening for Inhibitors of the SARS-CoV-2 Protease Using a FRET-Biosensor” (Molecules, 2020).
Structures can show the parent of a compound that is named as a salt. Where two headings read alike, the source gives them in different places.

Target: SARS-CoV-2 3CLpro (Severe acute respiratory syndrome coronavirus 2, UniProt P0DTD1)
Assay: biochemical
Format: biochemical
Parameters: Replicate_1 / Replicate_2 / mean / mean (LOPAC_screen_w_protease): unit not given here
Conditions: for inhibition at 5 µM: 4 h
[1] = sheet LOPAC_screen_w_protease, primary screen with protease, mean of two replicates
[2] = sheet LOPAC_screen_w_protease, primary screen with protease, replicate 1
[3] = sheet LOPAC_screen_w_protease, primary screen with protease, replicate 2
[4] = sheet LOPAC_screen_w_protease, primary screen with protease, compound at 5 µM, mean of two replicates, read-out: mean
[5] = sheet LOPAC_screen_w_protease, primary screen with protease, compound at 5 µM, replicate 1, read-out: Replicate_1
[6] = sheet LOPAC_screen_w_protease, primary screen with protease, compound at 5 µM, replicate 2, read-out: Replicate_2
[7] = LOPAC1280 primary screen with protease, 5 µM compound, replicate 1, read-out: Replicate_1 (LOPAC_screen_w_protease)
[8] = LOPAC1280 primary screen with protease, 5 µM compound, replicate 2, read-out: Replicate_2 (LOPAC_screen_w_protease)
[9] = LOPAC1280 primary screen with protease, 5 µM compound, mean of the two replicates
[10] = sheet LOPAC_screen_w_protease, LOPAC1280 at 5 µM, mean of two replicates, read-out: mean
[11] = sheet LOPAC_screen_w_protease, LOPAC1280 at 5 µM, replicate 1, read-out: Replicate_1
[12] = sheet LOPAC_screen_w_protease, LOPAC1280 at 5 µM, replicate 2, read-out: Replicate_2

**Q.** Which results are given for `O=C(O)CCCCCCC1C(=O)NC(=O)N1CCC(O)C1CCCCC1` (stereo not drawn) [BW 245C]?
**A.** Replicate_1 (LOPAC_screen_w_protease): 2.361; Replicate_2 (LOPAC_screen_w_protease): 0.3585; mean (LOPAC_screen_w_protease): 1.3595

**Q.** With `C=CC[N+](C)(C)c1ccc(CCC(=O)CCc2ccc([N+](C)(C)CC=C)cc2)cc1.[Br-].[Br-]` [BW 284c51] as the compound, how does the Replicate_1 read?
**A.** 2.051

**Q.** What about the Replicate_2 of the same compound?
**A.** 3.598

**Q.** What about the mean of the same compound?
**A.** 2.825

**Q.** Which results are given for `CC(N)Cc1c[nH]c2ccc(OCc3cccs3)cc12` (stereo not drawn) [BW 723C86]?
**A.** Replicate_1: 2.832; Replicate_2: 3.4189; mean: 3.125

**Q.** With `CC(/C=C/c1cccc(Oc2ccc(F)cc2)c1)N(O)C(N)=O` (stereo not drawn) [BWB70C] as the compound, how does the mean [1] read?
**A.** 2.212

**Q.** And the Replicate_1 [2]?
**A.** 2.534

**Q.** And the Replicate_2 [3]?
**A.** 1.889

**Q.** Which mean (sheet LOPAC_screen_w_protease, primary screen with protease, 5 µM, mean of two replicates) does the source give for `C[C@H]1C[C@H]2[C@@H]3CCC4=CC(=O)C=C[C@]4(C)[C@@]3(Cl)[C@@H](O)C[C@]2(C)[C@@]1(O)C(=O)CO` [Beclomethasone] here?
**A.** -0.1197

**Q.** What about the Replicate_1 (sheet LOPAC_screen_w_protease, primary screen with protease, 5 µM, replicate 1) of the same compound?
**A.** -0.1957

**Q.** What about the Replicate_2 (sheet LOPAC_screen_w_protease, primary screen with protease, 5 µM, replicate 2) of the same compound?
**A.** -0.04382

**Q.** For `c1ccc2cc(-c3ncc[nH]3)ccc2c1` [Benazoline oxalate], which inhibition at 5 µM (sheet LOPAC_screen_w_protease, primary screen of LOPAC1280 at 5 µM with protease, mean of the two replicates, read-out: mean) is on record?
**A.** 3.39%

**Q.** And the inhibition at 5 µM (sheet LOPAC_screen_w_protease, primary screen of LOPAC1280 at 5 µM with protease, replicate 1, read-out: Replicate_1)?
**A.** 1.95%

**Q.** What about the inhibition at 5 µM (sheet LOPAC_screen_w_protease, primary screen of LOPAC1280 at 5 µM with protease, replicate 2, read-out: Replicate_2) of the same compound?
**A.** 4.83%

**Q.** Which inhibition at 5 µM [4] does the source give for `COc1cccc(OC)c1OCCNCC1CSc2ccccc2O1` (stereo not drawn) [Benoxathian hydrochloride] here?
**A.** 2.7%

**Q.** And the inhibition at 5 µM [5]?
**A.** 1.96%

**Q.** And the inhibition at 5 µM [6]?
**A.** 3.44%

**Q.** How did the inhibition at 5 µM (sheet LOPAC_screen_w_protease, LOPAC1280 primary screen at 5 µM, with protease, mean of the two replicates, read-out: mean) turn out when `NC(=O)c1ccccc1` [Benzamide] was run?
**A.** 0.755%

**Q.** What about the inhibition at 5 µM (sheet LOPAC_screen_w_protease, LOPAC1280 primary screen at 5 µM, with protease, replicate 1, read-out: Replicate_1) of the same compound?
**A.** 1.21%

**Q.** And the inhibition at 5 µM (sheet LOPAC_screen_w_protease, LOPAC1280 primary screen at 5 µM, with protease, replicate 2, read-out: Replicate_2)?
**A.** 0.297%

**Q.** Which inhibition at 5 µM (sheet LOPAC_screen_w_protease, primary screen with protease, mean of two replicates, read-out: mean) does the source give for `N=C(N)c1ccccc1` [Benzamidine hydrochloride] here?
**A.** 2.38%

**Q.** And the inhibition at 5 µM (sheet LOPAC_screen_w_protease, primary screen with protease, replicate 1, read-out: Replicate_1)?
**A.** 1.49%

**Q.** What about the inhibition at 5 µM (sheet LOPAC_screen_w_protease, primary screen with protease, replicate 2, read-out: Replicate_2) of the same compound?
**A.** 3.28%

**Q.** Which inhibition at 5 µM [7] does the source give for `NC(=NCc1ccccc1)NC(=O)c1nc(Cl)c(N)nc1N` [Benzamil hydrochloride] here?
**A.** 1.66%

**Q.** And the inhibition at 5 µM [8]?
**A.** 1.83%

**Q.** What about the “mean (LOPAC_screen_w_protease)” value [9] of the same compound?
**A.** 1.743

**Q.** For `CN1[C@@H]2CC[C@H]1C[C@@H](OC(c1ccccc1)c1ccccc1)C2` [Benztropine mesylate], which inhibition at 5 µM [4] is on record?
**A.** 3.08%

**Q.** What about the inhibition at 5 µM [5] of the same compound?
**A.** 0.913%

**Q.** What about the inhibition at 5 µM [6] of the same compound?
**A.** 5.26%

**Q.** `CC(C)COCC(CN(Cc1ccccc1)c1ccccc1)N1CCCC1` (stereo not drawn) [Bepridil hydrochloride] was tested. Which inhibition at 5 µM (read-out: Replicate_1 (LOPAC screen with protease)) did it give?
**A.** 8.81%

**Q.** What about the inhibition at 5 µM (read-out: Replicate_2 (LOPAC screen with protease)) of the same compound?
**A.** 7.08%

**Q.** What about the inhibition at 5 µM (read-out: mean (LOPAC screen with protease)) of the same compound?
**A.** 7.94%

**Q.** What does the source list for `CC(C)C[C@H](NC(=O)[C@@H](O)[C@H](N)Cc1ccccc1)C(=O)O` [Bestatin hydrochloride]?
**A.** inhibition at 5 µM [7]: 1.1%; inhibition at 5 µM [8]: 3.15%; mean (LOPAC_screen_w_protease) [9]: 2.127

**Q.** Which inhibition at 5 µM [10] does the source give for `C[N+](C)(C)CC(=O)O` [Betaine hydrochloride] here?
**A.** 1.07%

**Q.** And the inhibition at 5 µM [11]?
**A.** 0.144%

**Q.** And the inhibition at 5 µM [12]?
**A.** 1.99%

**Q.** How did the inhibition at 5 µM (read-out: Replicate_1) turn out when `CC(C)NCC(O)COc1ccc(CCOCC2CC2)cc1` (stereo not drawn) [Betaxolol hydrochloride] was run?
**A.** 0.905%

**Q.** And the inhibition at 5 µM (read-out: Replicate_2)?
**A.** 3.87%

**Q.** What about the inhibition at 5 µM (read-out: mean) of the same compound?
**A.** 2.39%

**Q.** For `CC(C[N+](C)(C)C)OC(N)=O` (stereo not drawn) [Bethanechol chloride], which inhibition at 5 µM [7] is on record?
**A.** 0.465%

**Q.** And the inhibition at 5 µM [8]?
**A.** 2.25%

**Q.** And the “mean (LOPAC_screen_w_protease)” value (LOPAC1280 primary screen with protease, 5 µM compound, mean of two replicates)?
**A.** 1.356

**Q.** Which inhibition at 5 µM [10] does the source give for `C=CCc1ccccc1OCC(O)CNC1(C)CCC(C(C)(C)NC(=O)CBr)CC1` (stereo not drawn) [Bromoacetyl alprenolol menthane] here?
**A.** 1.3%

**Q.** What about the inhibition at 5 µM [11] of the same compound?
**A.** 0.0303%

**Q.** What about the inhibition at 5 µM [12] of the same compound?
**A.** 2.58%

**Q.** How did the mean [1] turn out when `C[N+](C)(C)CCOC(=O)CBr.[Br-]` [Bromoacetylcholine bromide] was run?
**A.** 2.401

**Q.** And the Replicate_1 [2]?
**A.** 0.6425

**Q.** What about the Replicate_2 [3] of the same compound?
**A.** 4.16

**Q.** For `CCCC1O[C@@H]2C[C@H]3[C@@H]4CCC5=CC(=O)C=C[C@]5(C)[C@H]4[C@@H](O)C[C@]3(C)[C@]2(C(=O)CO)O1` (stereo partly drawn) [Budesonide], which inhibition at 5 µM [4] is on record?
**A.** 3.01%

**Q.** And the inhibition at 5 µM [5]?
**A.** 1.81%

**Q.** And the inhibition at 5 µM [6]?
**A.** 4.21%

**Q.** `CCCCNc1cc(C(=O)O)cc(S(N)(=O)=O)c1Oc1ccccc1` [Bumetanide] was tested. Which inhibition at 5 µM (read-out: Replicate_1) did it give?
**A.** -0.596%

**Q.** What about the inhibition at 5 µM (read-out: Replicate_2) of the same compound?
**A.** 1.11%

**Q.** And the inhibition at 5 µM (read-out: mean)?
**A.** 0.258%
